Results filed as inconclusive are left out. Active and inactive are the calls of the source. The rule behind the calls is not given here.
Target: S. cerevisiae eIF2B mutant, luciferase reporter luminescence
Test: potency on yeast eIF2B luminescence signal – S. cerevisiae, mutant, wild-type, growth, dose response (AID 792)
[1] = measured here: mutant yeast growth
[2] = S. cerevisiae wild-type, luminescence

| Compound | IC50 | IC50 [1] [µM] | IC50 [2] [µM] |
| --- | --- | --- | --- |
| CC(C)C1Oc2ccccc2N(CC(=O)N(Cc2ccccn2)CC2CCCO2)C1=O (centres undefined) | > 100 µM (inactive) | > 100 | – |
| COc1ccc(CC(=O)Nc2ccc(N3CCN(c4ccc(OC)cc4)CC3)c(C#N)c2)cc1 | > 100 µM (inactive) | > 100 | – |
| O=C(CSc1nccc(=O)[nH]1)N1CCCc2ccccc21 | > 100 µM (inactive) | > 100 | – |
| COC(=O)c1cccc(NC(=O)c2ccc(S(=O)(=O)N3CCN(C)CC3)cc2)c1 | > 100 µM (inactive) | > 100 | – |
| CCCC(CCC(=O)NC1CCCCC1)C(=O)O (centres undefined) | > 100 µM (inactive) | > 100 | – |
| Fc1ccc(Nc2nc(Oc3ccc4c(c3)OCO4)nc(N3CCOCC3)n2)c(F)c1 | > 100 µM (inactive) | > 100 | – |
| CN1CCc2nc(SCC(=O)Nc3ccc(Cl)cc3)c(C#N)cc2C1 | > 100 µM (inactive) | > 100 | – |
| CSC1=NCCN1C(=O)c1cccc(C(F)(F)F)c1 | > 100 µM (inactive) | > 100 | – |
| COc1ccc(OC)c2c(N3CCN(C)CC3)cc(C(F)(F)F)nc12 | > 100 µM (inactive) | > 100 | – |
| O=C(NCc1ccc(F)cc1)c1c(O)c2cccc3c2n(c1=O)CCC3 | > 100 µM (inactive) | > 100 | – |
| CC(=O)Nc1ccc(OCC(O)CN2CCN(S(=O)(=O)c3ccc(NC(C)=O)cc3)CC2)cc1 (centres undefined) | > 100 µM (inactive) | > 100 | – |
| COc1ccccc1NC(=O)c1cc2ccccc2o/c1=N\O | > 100 µM (inactive) | > 100 | – |
| Cc1ccc(C(=O)Nc2ncc(C)s2)o1 | inactive | > 100 | 17.6 |
| Cc1cc(=O)oc2ccc(OCC(=O)N3CCc4ccccc43)cc12 | > 100 µM (inactive) | > 100 | – |
| CCCOCC1CC2(CC(C)(c3csc(N)n3)OC2=O)C(=O)O1 (centres undefined) | > 100 µM (inactive) | > 100 | – |
| CCC(CC)c1nnc(NC(=O)c2cccc(S(=O)(=O)N3CCc4ccccc43)c2)s1 | > 100 µM (inactive) | > 100 | – |
| Cc1ccccc1OCc1nc2c3cnn(C)c3ncn2n1 | > 100 µM (inactive) | > 100 | – |
| NC(=O)Cn1c(=O)n(Cc2ccco2)c(=O)c2c3c(sc21)CCCCC3 | > 100 µM (inactive) | > 100 | – |
| Cc1ccc(NC(=O)c2ccc(S(=O)(=O)N3CCCCC3)cc2)cc1 | > 100 µM (inactive) | > 100 | – |
| CCOC(=O)c1c(N)nn(C(C)=O)c1-c1ccccc1 | > 100 µM (inactive) | > 100 | – |
| CC(=O)Nc1ccc(Oc2cc(C#N)c(C#N)cc2N2CCCCCC2)cc1 | > 100 µM (inactive) | > 100 | – |
| CC(=O)c1cnc2c(-c3ccc(Cl)cc3)c(C)nn2c1C | > 100 µM (inactive) | > 100 | – |
| Cc1ccc(C)c(N2CCN(S(=O)(=O)c3ccc4[nH]c(=O)c(=O)[nH]c4c3)CC2)c1 | > 100 µM (inactive) | > 100 | – |
| CC(C)CC[n+]1ccn(-c2nc3ccccc3nc2[N-]S(=O)(=O)c2ccccc2)c1 | > 100 µM (inactive) | > 100 | – |
| COc1ccccc1-n1nc(C(=O)Nc2ccc3c(c2)OCO3)c2ccccc2c1=O | > 100 µM (inactive) | > 100 | – |
| CCOC(=O)C1(CCSC)NC(c2ccco2)C2C(=O)N(C)C(=O)C21 (centres undefined) | > 100 µM (inactive) | > 100 | – |
| COc1ccc(NC(=O)C(=O)NCCN2CCN(C(=O)c3cccs3)CC2)cc1 | > 100 µM (inactive) | > 100 | – |

| Compound | IC50 | IC50 [1] [µM] | IC50 [2] [µM] |
| --- | --- | --- | --- |
| CN(C)S(=O)(=O)c1cccc(NC(=O)COC(=O)c2ccc(Br)o2)c1 | > 100 µM (inactive) | > 100 | – |
| Cc1cccc(-c2nnc(SCC#N)n2Cc2ccccc2)c1 | > 100 µM (inactive) | > 100 | – |
| Cc1nnc(NC2CCCCC2)[nH]c1=O | > 100 µM (inactive) | > 100 | – |
| O=c1/c(=C/c2ccc(CNS(=O)(=O)c3ccccc3)o2)sc2n1CCN=2 | > 100 µM (inactive) | > 100 | – |
| CCCC(=O)Nc1sc(C(=O)OC)c(C)c1C(N)=O | > 100 µM (inactive) | > 100 | – |
| COc1cccc(-n2ccnc2SCC(=O)Nc2cc(OC)ccc2OC)c1 | > 100 µM (inactive) | > 100 | – |
| Nn1c(CSc2nc3ccccc3o2)nnc1CSc1nc2ccccc2o1 | > 100 µM (inactive) | > 100 | – |
| CCC(=O)Nc1c2c(nn1-c1ccc(C)cc1C)CSC2 | > 100 µM (inactive) | > 100 | – |
| O=C(CCN1CCN(Cc2ccccc2)CC1)Nc1cccc(Cl)c1 | > 100 µM (inactive) | > 100 | – |
| CCC(=O)N(Cc1cc(=O)[nH]c2ccccc12)c1cccc(C)c1 | > 100 µM (inactive) | > 100 | – |
| COCCn1c(C)cc(C2=NNC(=Nc3ccccc3)SC2)c1C | > 100 µM (inactive) | > 100 | – |
| Cc1cc(C)c(NC(=O)CSc2nnc(Cc3cccn3C)n2-c2ccc(F)cc2)c(C)c1 | > 100 µM (inactive) | > 100 | – |
| O=c1c(Cl)c(N2CCCCC2)cnn1-c1nc2ccccc2[nH]1 | inactive | > 100 | 3.69 |
| Cc1ccc(Cn2nnnc2CN2CCC(O)(c3ccc(F)cc3)CC2)cc1 | > 100 µM (inactive) | > 100 | – |
| CCOC(=O)c1cc(S(=O)(=O)N2CCN(C(=O)OCC)CC2)cn1C | > 100 µM (inactive) | > 100 | – |
| CCOCCCNC(=O)c1c[nH]c2ccc(C)cc2c1=O | > 100 µM (inactive) | > 100 | – |
| Cc1ccc(S(=O)(=O)N2CCOCC2)cc1C(=O)NCc1ccco1 | > 100 µM (inactive) | > 100 | – |
| COc1ccc(S(=O)(=O)N2CCCCC2C(=O)O)cc1OC (centres undefined) | > 100 µM (inactive) | > 100 | – |
| Cc1cccc2nc(CSc3nnc4ccccn34)cn12 | > 100 µM (inactive) | > 100 | – |
| Oc1ccccc1-c1nnc(-c2ccc(C(F)(F)F)cc2)o1 | > 100 µM (inactive) | > 100 | – |
| O=C(O)c1ccc(CSc2n[nH]c(-c3ccco3)n2)cc1 | > 100 µM (inactive) | > 100 | – |
| CCCCNC(=O)OC1CCS(=O)(=O)C1 (centres undefined) | > 100 µM (inactive) | > 100 | – |
| CCOC(=O)C1CCCN(C(=O)C(C)Oc2ccc(Cl)cc2Cl)C1 (centres undefined) | > 100 µM (inactive) | > 100 | – |
| O=C(CC(C(=O)N1CCc2ccccc21)n1ccnc1)NCC1CCCO1 (centres undefined) | > 100 µM (inactive) | > 100 | – |
| COC(=O)NC(=C(Cl)Cl)S(=O)(=O)c1ccccc1 | > 100 µM (inactive) | > 100 | – |
| Cc1ccc(NC(=O)CN(C)C(=O)CSc2nc3ccccc3o2)cc1 | > 100 µM (inactive) | > 100 | – |
| CCOc1ccccc1N1CC(C(=O)N2CCc3ccccc32)CC1=O (centres undefined) | > 100 µM (inactive) | > 100 | – |

| Compound | IC50 | IC50 [1] [µM] | IC50 [2] [µM] |
| --- | --- | --- | --- |
| CN1C(=O)NC(c2ccccc2)C2=C1CN(c1cccc(C(F)(F)F)c1)C2=O (centres undefined) | > 100 µM (inactive) | > 100 | – |
| COC(=O)c1ccccc1NC(=O)CSc1nc(-c2ccco2)cc(C(F)(F)F)n1 | > 100 µM (inactive) | > 100 | – |
| O=C(CCNS(=O)(=O)c1ccc2c(c1)CCC(=O)N2)NCc1cccnc1 | > 100 µM (inactive) | > 100 | – |
| CC1Cc2ccccc2N1C(=O)Cn1c(=O)cc(O)c2ccccc21 (centres undefined) | > 100 µM (inactive) | > 100 | – |
| COC(=O)c1nn2c(C(F)(F)F)cc(-c3ccc(Br)o3)nc2c1Br | > 100 µM (inactive) | > 100 | – |
| COC(=O)CC1Oc2ccccc2N(Cc2ccc(C)cc2)C1=O (centres undefined) | > 100 µM (inactive) | > 100 | – |
| Cc1cc(C(=O)Nc2sc3c(c2C#N)CCC(C)C3)no1 (centres undefined) | > 100 µM (inactive) | > 100 | – |
| Cn1c(CNc2ccccc2)cc(=O)n(C)c1=O | > 100 µM (inactive) | > 100 | – |
| CN(C)C(=O)Oc1ccc(OC(=O)c2ccccc2)cc1 | – | > 100 | – |
| CC(C)OC(=O)CCc1nc2ccccc2[nH]c1=O | > 100 µM (inactive) | > 100 | – |
| CNC(=O)CCn1nc(-c2ccccc2)c2ccccc2c1=O | > 100 µM (inactive) | > 100 | – |
| Nc1ccc2oc(CCc3ccccc3)nc2c1 | > 100 µM (inactive) | > 100 | – |
| COc1ccc(Cl)cc1C(=O)N1CCN(c2ccccn2)CC1 | > 100 µM (inactive) | > 100 | – |
| CCOC(=O)c1c(NC(=O)COC)sc2c1CCCC2 | > 100 µM (inactive) | > 100 | – |
| Cc1ccc(-c2cn(S(=O)(=O)c3cccc4nsnc34)nc2N)cc1 | > 100 µM (inactive) | > 100 | – |
| O=C(C1CCN(S(=O)(=O)N2CCOCC2)CC1)N1CCOCC1 | > 100 µM (inactive) | > 100 | > 100 |
| COC(=O)[C@H](Cc1ccccc1)NC(=O)NCc1ccccc1OC | > 100 µM (inactive) | > 100 | – |
| COc1cc2cc(C(c3nnnn3C3CCCCC3)N(C)C3CCCCC3)c(=O)[nH]c2cc1OC (centres undefined) | > 100 µM (inactive) | > 100 | – |
| Cn1c(/C(C#N)=C(\O)CN2CCN(Cc3ccccc3)CC2)nc2ccccc21 | > 100 µM (inactive) | > 100 | – |
| Cc1nc(N2CCN(C(=O)c3ccco3)CC2)c2c3c(sc2n1)CCCC3 | > 100 µM (inactive) | > 100 | – |
| CN1C(=O)c2ccccc2Sc2ccc(C(=O)N3CCC4(CC3)OCCO4)cc21 | > 100 µM (inactive) | > 100 | – |
| O=C1c2ccncc2C(=O)N1C1CCCCC1 | > 100 µM (inactive) | > 100 | – |
| Cc1c(O)c(CN2CCCC2)cc2c1oc(=O)c1ccccc12 | > 100 µM (inactive) | > 100 | > 100 |
| CCSc1nnc(-c2ccc(S(=O)(=O)NCc3cccs3)cc2)o1 | > 100 µM (inactive) | > 100 | – |
| Cc1ccc(CN(CC2CCCO2)C(=O)CN2C(=O)C(C(C)C)Oc3ccccc32)o1 (centres undefined) | inactive | 14.2 | > 100 |
| Cc1cc(C)cc(OCc2nnc(SCC(=O)N3CCN(c4ccccc4)CC3)o2)c1 | > 100 µM (inactive) | > 100 | – |

Reference: PubChem BioAssay AID792 (PCMD, 2007)
